Source: patent US11912701B2, “Protein kinase inhibitors for promoting liver regeneration or reducing or preventing hepatocyte death” (HEPAREGENIX GMBH, priority 2018, dated 2024)
pIC50: −log10 of the molar value.

Experiments:
[1] = target: T1, MKK7 (Homo sapiens, UniProt O14733); assay: 33PanQinase enzyme assay, MKK7; assay type: biochemical; parameters: purchased ProQinase GmbH, Freiburg, Germany (33PanQinase Assay Service); conditions: ratio IC50(MKK7)/IC50(MKK4)
T1 sequence (O14733 1-419): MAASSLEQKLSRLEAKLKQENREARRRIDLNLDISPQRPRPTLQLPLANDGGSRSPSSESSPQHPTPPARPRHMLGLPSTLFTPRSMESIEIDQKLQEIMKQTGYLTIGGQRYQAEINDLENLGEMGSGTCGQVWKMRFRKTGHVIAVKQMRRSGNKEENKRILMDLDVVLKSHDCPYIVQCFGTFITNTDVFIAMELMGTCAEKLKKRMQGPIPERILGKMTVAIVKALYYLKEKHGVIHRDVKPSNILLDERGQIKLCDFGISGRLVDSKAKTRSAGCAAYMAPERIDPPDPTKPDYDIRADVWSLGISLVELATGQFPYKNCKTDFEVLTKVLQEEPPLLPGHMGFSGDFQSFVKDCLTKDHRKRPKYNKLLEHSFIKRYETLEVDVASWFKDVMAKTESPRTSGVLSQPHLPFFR
Procedure, shortened: (§1)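 33Pi incorporation, read by microplate scintillation counting, measured kinase activity after 60 min at 30 °C. Reactions were quenched with 2% (v/v) H3PO4 and washed with 0.9% NaCl. IC50 derived by least-squares fitting; single doses reported as % residual activity.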

[2] = target: T2, JNK1 (Homo sapiens, UniProt P45983); assay: KINOMEscan competition binding assay, JNK1; parameters: M1/Q384; host or cells: HEK-293; conditions: ratio PoC (off-target)/PoC (MKK4)
Procedure, shortened: (§2)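 DNA-tagged kinases expressed in HEK-293 cells compete between immobilized ligand on blocked beads and test compound at 100 nM; kinase retained on beads quantified by qPCR of the tag.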
Target sequence in this assay (P45983 1-384 isoform P45983-2): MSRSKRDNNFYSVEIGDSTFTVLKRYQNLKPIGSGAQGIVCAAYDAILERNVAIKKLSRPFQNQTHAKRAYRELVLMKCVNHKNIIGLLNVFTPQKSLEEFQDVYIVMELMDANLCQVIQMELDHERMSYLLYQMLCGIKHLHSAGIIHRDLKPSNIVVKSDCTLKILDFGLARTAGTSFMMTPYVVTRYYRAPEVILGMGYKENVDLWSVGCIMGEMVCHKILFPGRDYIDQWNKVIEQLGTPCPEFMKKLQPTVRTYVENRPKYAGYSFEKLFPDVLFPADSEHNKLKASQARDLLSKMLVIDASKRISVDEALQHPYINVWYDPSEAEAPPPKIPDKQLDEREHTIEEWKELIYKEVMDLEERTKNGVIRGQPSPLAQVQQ

[3] = target: T1, MKK7; assay: KINOMEscan competition binding assay, MKK7; parameters: M1/R419; host or cells: HEK-293; conditions: ratio PoC (off-target)/PoC (MKK4)
Procedure, shortened: as §2

[4] = target: T3, MKK4 (Homo sapiens, UniProt P45985); assay: KINOMEscan competition binding assay, MKK4; conditions: residual percent of control binding (PoC) at 100 nM
T3 construct: S84/D399; host or cells: HEK-293
T3 sequence (P45985 84-399): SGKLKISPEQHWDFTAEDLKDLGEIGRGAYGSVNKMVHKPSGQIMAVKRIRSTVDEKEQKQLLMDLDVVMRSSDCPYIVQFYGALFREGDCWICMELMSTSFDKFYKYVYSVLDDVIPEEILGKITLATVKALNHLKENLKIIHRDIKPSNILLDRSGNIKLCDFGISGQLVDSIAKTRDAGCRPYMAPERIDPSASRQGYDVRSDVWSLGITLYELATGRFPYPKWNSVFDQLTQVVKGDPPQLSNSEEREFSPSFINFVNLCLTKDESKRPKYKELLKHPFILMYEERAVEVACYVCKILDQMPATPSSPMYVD
Procedure, shortened: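 Tested at 100 nM and reported as percent of control binding (PoC). MKK4 was produced in HEK-293 cells and DNA-tagged. Displacement from ligand-coated, blocked beads was read by qPCR of eluted kinase.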

[5] = target: T4, BRaf (Homo sapiens, UniProt P15056); assay: 33PanQinase enzyme assay, BRaf; assay type: biochemical; conditions: ratio IC50(BRaf)/IC50(MKK4)
T4 construct: purchased ProQinase GmbH, Freiburg, Germany (33PanQinase Assay Service)
T4 sequence (P15056 whole entry, species assumed): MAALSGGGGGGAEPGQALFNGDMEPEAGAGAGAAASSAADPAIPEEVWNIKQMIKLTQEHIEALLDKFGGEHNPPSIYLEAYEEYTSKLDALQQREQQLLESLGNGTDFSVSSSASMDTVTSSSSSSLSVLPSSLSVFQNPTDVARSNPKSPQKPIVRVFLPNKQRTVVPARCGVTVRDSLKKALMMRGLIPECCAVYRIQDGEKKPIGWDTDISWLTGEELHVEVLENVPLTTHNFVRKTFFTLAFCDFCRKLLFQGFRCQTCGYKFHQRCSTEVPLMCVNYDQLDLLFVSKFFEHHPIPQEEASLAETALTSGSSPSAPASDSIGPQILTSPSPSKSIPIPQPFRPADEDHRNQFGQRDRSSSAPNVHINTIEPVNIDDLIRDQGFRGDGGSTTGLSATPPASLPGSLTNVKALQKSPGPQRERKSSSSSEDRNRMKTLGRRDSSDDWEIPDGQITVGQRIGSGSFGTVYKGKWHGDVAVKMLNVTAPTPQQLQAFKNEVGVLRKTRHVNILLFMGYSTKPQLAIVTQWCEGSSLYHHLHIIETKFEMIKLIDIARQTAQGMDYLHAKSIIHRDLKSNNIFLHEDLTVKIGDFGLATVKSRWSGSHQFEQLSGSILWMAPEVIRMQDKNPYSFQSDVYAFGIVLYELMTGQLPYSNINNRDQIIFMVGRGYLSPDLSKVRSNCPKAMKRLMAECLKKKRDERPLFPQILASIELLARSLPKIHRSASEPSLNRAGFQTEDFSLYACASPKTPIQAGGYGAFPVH
Procedure, shortened: as §1

[6] = target: T5, MKK4 (Homo sapiens, UniProt P45985); assay: 33PanQinase enzyme assay, MKK4; assay type: biochemical; conditions: assay 'IC50'; read-out: Potency MKK4 (IC50)
T5 construct: purchased ProQinase GmbH, Freiburg, Germany (33PanQinase Assay Service)
T5 sequence (P45985 1-399): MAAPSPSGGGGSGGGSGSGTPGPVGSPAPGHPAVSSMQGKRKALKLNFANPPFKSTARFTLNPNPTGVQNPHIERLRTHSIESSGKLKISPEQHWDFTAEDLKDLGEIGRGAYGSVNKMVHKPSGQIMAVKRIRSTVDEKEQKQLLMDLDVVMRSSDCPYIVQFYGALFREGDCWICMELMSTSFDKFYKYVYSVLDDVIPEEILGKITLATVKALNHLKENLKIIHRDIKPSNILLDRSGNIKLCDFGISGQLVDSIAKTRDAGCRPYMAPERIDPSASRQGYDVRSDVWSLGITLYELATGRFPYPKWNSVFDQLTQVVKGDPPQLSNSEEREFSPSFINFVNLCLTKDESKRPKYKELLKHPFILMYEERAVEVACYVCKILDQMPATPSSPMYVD
Procedure, shortened: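 Inhibition measured as 33Pi transfer to substrate after a 60-min, 30 °C reaction, acid-stopped and scintillation-counted.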

[7] = target: T4, BRaf; assay: KINOMEscan competition binding assay, BRaf; conditions: ratio PoC (off-target)/PoC (MKK4)
Procedure, shortened: as §2

[8] = target: T2, JNK1; assay: 33PanQinase enzyme assay, JNK1; assay type: biochemical; parameters: purchased ProQinase GmbH, Freiburg, Germany (33PanQinase Assay Service); conditions: ratio IC50(JNK1)/IC50(MKK4)
Procedure, shortened: as §1
Target sequence in this assay (P45983 whole entry): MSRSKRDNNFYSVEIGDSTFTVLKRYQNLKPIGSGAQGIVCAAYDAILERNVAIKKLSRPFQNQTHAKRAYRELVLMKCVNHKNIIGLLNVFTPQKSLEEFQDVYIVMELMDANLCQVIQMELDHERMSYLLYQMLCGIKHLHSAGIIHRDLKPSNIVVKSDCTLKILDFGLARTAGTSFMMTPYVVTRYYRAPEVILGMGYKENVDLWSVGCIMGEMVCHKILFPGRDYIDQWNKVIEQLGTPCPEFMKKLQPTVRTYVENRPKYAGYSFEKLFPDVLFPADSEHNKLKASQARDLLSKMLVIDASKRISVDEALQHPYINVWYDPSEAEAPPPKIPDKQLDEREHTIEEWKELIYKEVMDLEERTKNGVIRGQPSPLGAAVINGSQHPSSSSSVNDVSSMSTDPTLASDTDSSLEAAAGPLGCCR

Row | Structure (SMILES) | Selectivity IVIKK7, IC50(off-target)/IC50(MKK4) [1] | selectivity based on % Ctrl @100 nM vs. JNK1 [2] | selectivity based on % Ctrl @100 nM vs. MKK7 [3] | MKK4 [% Ctrl @ 100 nM [4] | Selectivity Braf, IC50(off-target)/IC50(MKK4) [5] | pIC50 [6] | selectivity based on % Ctrl @100 nM vs. Braf [7] | Selectivity JNK1, IC50(off-target)/IC50(MKK4) [8]
1 | COc1ccc(-c2cnc3[nH]cc(C(=O)c4cccc(NS(=O)(=O)Cc5ccccc5)c4F)c3c2)c(Cl)c1 [Example 125, N-(3-(5-(2-chloro-4-methoxyphenyl)-1H-pyrrolo[2,3-b]pyridine-3-carbonyl)-2-fluorophenyl)-1-phenylmethanesulfonamide] | +++ (IC50(off-target)/IC50(MKK4) > 100) | ++ (100 ≥ ratio > 10) | ++ (100 ≥ ratio > 10) | ++ (1 ≤ PoC < 3) | +++ (IC50(off-target)/IC50(MKK4) > 100) | 6.00 to 7.00 | ++ (100 ≥ ratio > 10) | + (10 ≥ IC50(off-target)/IC50(MKK4) > 3)
2 | Cc1cc(F)ccc1-c1cnc2[nH]cc(C(=O)c3cccc(NS(=O)(=O)Cc4ccccc4)c3F)c2c1 [Example 126, N-(2-fluoro-3-(5-(4-fluoro-2-methylphenyl)-1H-pyrrolo[2,3-b]pyridine-3-carbonyl)phenyl)-1-phenylmethanesulfonamide] | +++ (IC50(off-target)/IC50(MKK4) > 100) | ++ (100 ≥ ratio > 10) | ++ (100 ≥ ratio > 10) | + (3 ≤ PoC < 30) | +++ (IC50(off-target)/IC50(MKK4) > 100) | 6.00 to 7.00 | ++ (100 ≥ ratio > 10) | + (10 ≥ IC50(off-target)/IC50(MKK4) > 3)
3 | O=C(c1cccc(NS(=O)(=O)Cc2ccccc2)c1F)c1c[nH]c2ncc(-c3cc4c(cc3Cl)OCO4)cc12 [Example 128, N-(3-(5-(6-chlorobenzo[d][1,3]dioxol-5-yl)-1H-pyrrolo[2,3-b]pyridine-3-carbonyl)-2-fluorophenyl)-1-phenylmethanesulfonamide] | +++ (IC50(off-target)/IC50(MKK4) > 100) | ++ (100 ≥ ratio > 10) | ++ (100 ≥ ratio > 10) | ++ (1 ≤ PoC < 3) | +++ (IC50(off-target)/IC50(MKK4) > 100) | 6.00 to 7.00 | ++ (100 ≥ ratio > 10) | + (10 ≥ IC50(off-target)/IC50(MKK4) > 3)
4 | O=C(c1cccc(NS(=O)(=O)Cc2ccccc2)c1F)c1c[nH]c2ncc(-c3ccncc3)cc12 [Example 129, N-(2-fluoro-3-(5-(pyridin-4-yl)-1H-pyrrolo[2,3-b]pyridine-3-carbonyl)phenyl)-1-phenylmethanesulfonamide] | +++ (IC50(off-target)/IC50(MKK4) > 100) | +++ (Ratio > 100) | +++ (Ratio > 100) | +++ (PoC < 1) | ++ (100 ≥ IC50(off-target)/IC50(MKK4) > 10) | 6.00 to 7.00 | +++ (Ratio > 100) | + (10 ≥ IC50(off-target)/IC50(MKK4) > 3)
5 | O=C(c1ccc(F)c(NS(=O)(=O)CCC(F)(F)F)c1F)c1c[nH]c2ncc(-c3ccc(C(F)(F)F)nc3)cc12 [Example 148, N-(2,6-difluoro-3-(5-(6-(trifluoromethyl)pyridin-3-yl)-1H-pyrrolo[2,3-b]pyridine-3-carbonyl)phenyl)-3,3,3-trifluoropropane-1-sulfonamide] | +++ (IC50(off-target)/IC50(MKK4) > 100) | +++ (Ratio > 100) | +++ (Ratio > 100) | +++ (PoC < 1) | ++ (100 ≥ IC50(off-target)/IC50(MKK4) > 10) | > 7.00 | +++ (Ratio > 100) | +++ (IC50(off-target)/IC50(MKK4) > 100)
6 | O=C(c1ccc(F)c(NS(=O)(=O)CCC(F)(F)F)c1F)c1c[nH]c2ncc(-c3cccnc3)cc12 [Example 156, N-(2,6-difluoro-3-(5-(pyridin-3-yl)-1H-pyrrolo[2,3-b]pyridine-3-carbonyl)phenyl)-3,3,3-trifluoropropane-1-sulfonamide] | +++ (IC50(off-target)/IC50(MKK4) > 100) | +++ (Ratio > 100) | +++ (Ratio > 100) | +++ (PoC < 1) | ++ (100 ≥ IC50(off-target)/IC50(MKK4) > 10) | > 7.00 | +++ (Ratio > 100) | +++ (IC50(off-target)/IC50(MKK4) > 100)
7 | Cc1cc(F)ncc1-c1cnc2[nH]cc(C(=O)c3ccc(F)c(NS(=O)(=O)CCC(F)(F)F)c3F)c2c1 [Example 157, N-(2,6-difluoro-3-(5-(6-fluoro-4-methylpyridin-3-yl)-1H-pyrrolo[2,3-b]pyridine-3-carbonyl)phenyl)-3,3,3-trifluoropropane-1-sulfonamide] | +++ (IC50(off-target)/IC50(MKK4) > 100) | +++ (Ratio > 100) | +++ (Ratio > 100) | +++ (PoC < 1) | +++ (IC50(off-target)/IC50(MKK4) > 100) | > 7.00 | +++ (Ratio > 100) | +++ (IC50(off-target)/IC50(MKK4) > 100)
